This note sets out measurements from article PMC7892824, “Eltrombopag directly inhibits BAX and prevents cell death” (Nature Communications, 2021).

Molecules are shown by their SMILES.

One test has as its target T1, BAX R134E (Homo sapiens, UniProt Q07812, R134E).
T1 construct: full-length (1–192)
Briefly: 1H-15N HSQC NMR chemical shift perturbation; liposomal release inhibition. Type of test: binding.

In another test the target is T2, BAX (Mus musculus, UniProt Q07813).
T2 construct: endogenous BAX in BAK KO mouse embryonic fibroblasts
Briefly: CETSA, […] EO, TM lowered by […] °C. Type of test: cell-based. The settings on record: read-out: CETSA, 10 μM EO, TM lowered by 9 °C.

T1 sequence (Q07812 whole entry R134E): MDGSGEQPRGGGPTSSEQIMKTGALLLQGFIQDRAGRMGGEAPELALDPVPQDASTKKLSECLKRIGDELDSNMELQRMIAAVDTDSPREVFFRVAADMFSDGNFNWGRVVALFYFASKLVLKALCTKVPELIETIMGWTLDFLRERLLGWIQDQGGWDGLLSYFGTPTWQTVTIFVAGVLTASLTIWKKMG
T2 sequence (Q07813 whole entry): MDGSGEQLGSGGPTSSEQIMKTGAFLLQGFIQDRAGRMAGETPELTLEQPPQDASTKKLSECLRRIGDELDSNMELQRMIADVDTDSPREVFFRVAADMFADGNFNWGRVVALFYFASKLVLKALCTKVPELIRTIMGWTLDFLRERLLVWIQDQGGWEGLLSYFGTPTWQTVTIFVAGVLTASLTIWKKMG

As to `CC1=NN(c2ccc(C)c(C)c2)C(=O)/C1=N\Nc1cccc(-c2cccc(C(=O)O)c2)c1O` [compound 2, Eltrombopag], at BAX R134E, the “1H-15N HSQC NMR chemical shift perturbation; liposomal release inhibition” value is “BAX R134E in the presence of EO exhibited clustering of CSPs to the trigger site, albeit with reduced CSPs”. Also, the Tm decrease at 10 µM on BAX came out at 9 °C.
